Source: patent publication US20170190671A1, “BIS(ARYL)CATECHOL DERIVATIVES AS HERBICIDES” (E I DU PONT DE NEMOURS AND COMPANY, priority 2014, published 2017)

Tests used:
Format in all cases: in vivo
[1] = tested on: pigweed (Amaranthus retroflexus); experiment: Test C postemergence; details: Amaranthus retroflexus, post-emergence, 336 h, Postemergence, scale 0 to 100, read-out: Plant response rating, Pigweed
Procedure, shortened: (§1)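 Seeded loam-sand soil (preemergence) or young potted plants of 2-18 cm (postemergence) received test chemical formulated with surfactant in a non-phytotoxic solvent. Pots were kept in the greenhouse for 13-15 days before a visual 0-100 control rating relative to controls.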

[2] = tested on: lambsquarters (Chenopodium album); experiment: Test C postemergence; details: Chenopodium album, post-emergence, 336 h, Postemergence, scale 0 to 100, read-out: Plant response rating, Lambsquarters
Procedure, shortened: as §1

[3] = tested on: blackgrass (Alopecurus myosuroides); experiment: Test C postemergence; details: Alopecurus myosuroides, post-emergence, 336 h, Postemergence, scale 0 to 100, read-out: Plant response rating, Blackgrass
Procedure, shortened: as §1

[4] = tested on: velvetleaf (Abutilon theophrasti); experiment: Test C postemergence; details: Abutilon theophrasti, post-emergence, Postemergence, scale 0 to 100, read-out: Plant response rating, Velvetleaf
Procedure, shortened: as §1

[5] = tested on: chickweed (common chickweed, Stellaria media); experiment: Test C postemergence; details: Stellaria media, post-emergence, Postemergence, scale 0 to 100, read-out: Plant response rating, Chickweed
Procedure, shortened: as §1

[6] = tested on: soybean (Glycine max); experiment: Test C postemergence; details: Glycine max, post-emergence, Postemergence, scale 0 to 100, read-out: Plant response rating, Soybean
Procedure, shortened: as §1

[7] = tested on: morningglory (Ipomoea coccinea); experiment: Test C postemergence; details: Ipomoea, post-emergence, 336 h, Postemergence, scale 0 to 100, read-out: Plant response rating, Morningglory
Procedure, shortened: as §1

[8] = tested on: corn (Zea mays); experiment: Test C postemergence; details: Zea mays, post-emergence, 336 h, Postemergence, scale 0 to 100
Procedure, shortened: as §1

[9] = tested on: johnsongrass (Sorghum halepense); experiment: Test C postemergence; details: Sorghum halepense, post-emergence, 336 h, Postemergence, scale 0 to 100, read-out: Plant response rating, Johnsongrass
Procedure, shortened: as §1

[10] = tested on: barnyardgrass (Echinochloa crus-galli); experiment: Test C postemergence; details: Echinochloa crus-galli, post-emergence, Postemergence, scale 0 to 100, read-out: Plant response rating, Barnyardgrass
Procedure, shortened: as §1

[11] = tested on: yellow nutsedge (Cyperus esculentus); experiment: Test C postemergence; details: Cyperus, post-emergence, 336 h, Postemergence, scale 0 to 100, read-out: Plant response rating, Nutsedge, Yellow
Procedure, shortened: as §1

[12] = tested on: waterhemp (common waterhemp, Amaranthus rudis); experiment: Test C postemergence; details: Amaranthus tuberculatus, post-emergence, Postemergence, scale 0 to 100, read-out: Plant response rating, Waterhemp
Procedure, shortened: as §1

[13] = tested on: oilseed rape (Brassica napus); experiment: Test C postemergence; details: Brassica napus, post-emergence, Postemergence, scale 0 to 100, read-out: Plant response rating, Oilseed Rape
Procedure, shortened: as §1

[14] = tested on: kochia (Kochia scoparia); experiment: Test C postemergence; details: Bassia scoparia, post-emergence, Postemergence, scale 0 to 100, read-out: Plant response rating, Kochia
Procedure, shortened: as §1

[15] = tested on: giant foxtail (Setaria faberii); experiment: Test C postemergence; details: Setaria faberi, post-emergence, 336 h, Postemergence, scale 0 to 100, read-out: Plant response rating, Foxtail, Giant
Procedure, shortened: as §1

[16] = tested on: large (Lg) crabgrass (Digitaria sanguinalis); experiment: Test C postemergence; details: Digitaria sanguinalis, post-emergence, 336 h, Postemergence, scale 0 to 100, read-out: Plant response rating, Crabgrass, Large
Procedure, shortened: as §1

[17] = tested on: winter wheat (Triticum aestivum); experiment: Test C postemergence; details: Triticum aestivum, post-emergence, 336 h, Postemergence, scale 0 to 100, read-out: Plant response rating, Wheat
Procedure, shortened: as §1

[18] = tested on: galium (catchweed bedstraw, Galium aparine); experiment: Test C postemergence; details: Galium, post-emergence, 336 h, Postemergence, scale 0 to 100, read-out: Plant response rating, Galium
Procedure, shortened: as §1

[19] = tested on: ragweed (common ragweed, Ambrosia elatior); experiment: Test C postemergence; details: Ambrosia artemisiifolia, post-emergence, 336 h, Postemergence, scale 0 to 100, read-out: Plant response rating, Ragweed
Procedure, shortened: as §1

[20] = tested on: pigweed (Amaranthus retroflexus); experiment: Test C preemergence; details: Amaranthus retroflexus, pre-emergence, 336 h, preemergence, scale 0 to 100, read-out: Plant response rating, Pigweed
Text: (§2) Seeds of plant species selected from blackgrass (Alopecurus myosuroides), Italian ryegrass (Lolium multiflorum), winter wheat (Triticum aestivum), galium (catchweed bedstraw, Galium aparine), corn (Zea mays), large (Lg) crabgrass (Digitaria sanguinalis), giant foxtail (Setaria faberii), johnsongrass (Sorghum halepense), lambsquarters (Chenopodium album), morningglory (Ipomoea coccinea), yellow nutsedge (Cyperus esculentus), pigweed (Amaranthus retroflexus), ragweed (common ragweed, Ambrosia elatior), soybean (Glycine max), barnyardgrass (Echinochloa crus-galli), oilseed rape (Brassica napus), waterhemp (common waterhemp, Amaranthus rudis), and velvetleaf (Abutilon theophrasti) were planted into a blend of loam soil and sand and treated preemergence with test chemicals formulated in a non-phytotoxic solvent mixture which included a surfactant.
(§3) At the same time, plants selected from these crop and weed species and also chickweed (common chickweed, Stellaria media), kochia (Kochia scoparia), and wild oat (Avena fatua), were planted in pots containing Redi-Earth® planting medium (Scotts Company, 14111 Scottslawn Road, Marysville, Ohio 43041) comprising spaghnum peat moss, vermiculite, wetting agent and starter nutrients and treated with postemergence applications of test chemicals formulated in the same manner. Plants ranged in height from 2 to 18 cm (1- to 4-leaf stage) for postemergence treatments. Treated plants and controls were maintained in a greenhouse for 13 to 15 days, after which time all species were compared to controls and visually evaluated. Plant response ratings, summarized in Table C, are based on a scale of 0 to 100 where 0 is no effect and 100 is complete control. A dash (-) response means no test result.

[21] = tested on: morningglory (Ipomoea coccinea); experiment: Test C preemergence; details: Ipomoea, pre-emergence, 336 h, preemergence, scale 0 to 100, read-out: Plant response rating, Morningglory
Text: as §2, §3

[22] = tested on: johnsongrass (Sorghum halepense); experiment: Test C preemergence; details: Sorghum halepense, pre-emergence, 336 h, preemergence, scale 0 to 100, read-out: Plant response rating, Johnsongrass
Text: as §2, §3

N#Cc1cccc(Oc2ncc(Cl)cn2)c1Oc1ncc(Cl)cn1 [Compound 3, 2,3-bis[(5-chloro-2-pyrimidinyl)oxy]benzonitrile] showed a pest or weed control at 31 g/ha ([1]; 31 g ai/ha) of 75%, a pest or weed control at 62 g/ha ([1]; 62 g ai/ha) of 80% and a pest or weed control at 125 g/ha ([1]; 125 g ai/ha) of 90%. The pest or weed control at 250 g/ha ([1]; 250 g ai/ha) was 100%, the pest or weed control at 31 g/ha ([2]; 31 g ai/ha) was 85% and the pest or weed control at 62 g/ha ([2]; 62 g ai/ha) was 95%. For the same compound, the pest or weed control at 125 g/ha ([2]; 125 g ai/ha) was 95%, the pest or weed control at 250 g/ha ([2]; 250 g ai/ha) was 100% and the pest or weed control at 31 g/ha ([3]; 31 g ai/ha) was 20%. The pest or weed control at 62 g/ha ([3]; 62 g ai/ha) was 20%, the pest or weed control at 125 g/ha ([3]; 125 g ai/ha) was 30% and the pest or weed control at 250 g/ha ([3]; 250 g ai/ha) was 30%. The pest or weed control at 31 g/ha ([4]; 31 g ai/ha) was 35%, the pest or weed control at 62 g/ha ([4]; 62 g ai/ha) was 70% and the pest or weed control at 125 g/ha ([4]; 125 g ai/ha) was 70%. The pest or weed control at 250 g/ha ([4]; 250 g ai/ha) was 80%, the pest or weed control at 31 g/ha ([5]; 31 g ai/ha) was 50% and the pest or weed control at 62 g/ha ([5]; 62 g ai/ha) was 85%. For the same compound, the pest or weed control at 125 g/ha ([5]; 125 g ai/ha) was 90%, the pest or weed control at 250 g/ha ([5]; 250 g ai/ha) was 95% and the plant injury at 31 g/ha ([6]; 31 g ai/ha) was 85%. For the same compound, the plant injury at 62 g/ha ([6]; 62 g ai/ha) was 90%, the plant injury at 125 g/ha ([6]; 125 g ai/ha) was 95% and the plant injury at 250 g/ha ([6]; 250 g ai/ha) was 95%. For the same compound, the pest or weed control at 31 g/ha ([7]; 31 g ai/ha) was 85%, the pest or weed control at 62 g/ha ([7]; 62 g ai/ha) was 90% and the pest or weed control at 125 g/ha ([7]; 125 g ai/ha) was 90%. For the same compound, the pest or weed control at 250 g/ha ([7]; 250 g ai/ha) was 98%, the Corn plant response rating (crop injury, 0 = no effect, 100 = complete kill) at 31 g/ha ([8]; 31 g ai/ha) was 10% and the Corn plant response rating (crop injury, 0 = no effect, 100 = complete kill) at 62 g/ha ([8]; 62 g ai/ha) was 35%. The Corn plant response rating (crop injury, 0 = no effect, 100 = complete kill) at 250 g/ha ([8]; 250 g ai/ha) was 75%, the pest or weed control at 31 g/ha ([9]; 31 g ai/ha) was 15% and the pest or weed control at 62 g/ha ([9]; 62 g ai/ha) was 15%. The pest or weed control at 125 g/ha ([9]; 125 g ai/ha) was 15%, the pest or weed control at 250 g/ha ([9]; 250 g ai/ha) was 50% and the pest or weed control at 31 g/ha ([10]; 31 g ai/ha) was 5%. For the same compound, the pest or weed control at 62 g/ha ([10]; 62 g ai/ha) was 10%, the pest or weed control at 125 g/ha ([10]; 125 g ai/ha) was 20% and the pest or weed control at 250 g/ha ([10]; 250 g ai/ha) was 60%. For the same compound, the pest or weed control at 31 g/ha ([11]; 31 g ai/ha) was 0%, the pest or weed control at 62 g/ha ([11]; 62 g ai/ha) was 0% and the pest or weed control at 125 g/ha ([11]; 125 g ai/ha) was 5%. The pest or weed control at 250 g/ha ([11]; 250 g ai/ha) was 35%, the pest or weed control at 31 g/ha ([12]; 31 g ai/ha) was 75% and the pest or weed control at 62 g/ha ([12]; 62 g ai/ha) was 75%. The pest or weed control at 125 g/ha ([12]; 125 g ai/ha) was 85%, the pest or weed control at 250 g/ha ([12]; 250 g ai/ha) was 98% and the plant injury at 31 g/ha ([13]; 31 g ai/ha) was 50%. The plant injury at 62 g/ha ([13]; 62 g ai/ha) was 60%, the plant injury at 125 g/ha ([13]; 125 g ai/ha) was 70% and the plant injury at 250 g/ha ([13]; 250 g ai/ha) was 85%. It also gave a pest or weed control at 31 g/ha ([14]; 31 g ai/ha) of 90%, a pest or weed control at 62 g/ha ([14]; 62 g ai/ha) of 90% and a pest or weed control at 125 g/ha ([14]; 125 g ai/ha) of 95%. It also gave a pest or weed control at 250 g/ha ([14]; 250 g ai/ha) of 95%, a pest or weed control at 31 g/ha ([15]; 31 g ai/ha) of 5% and a pest or weed control at 62 g/ha ([15]; 62 g ai/ha) of 15%. For the same compound, the pest or weed control at 125 g/ha ([15]; 125 g ai/ha) was 15%, the pest or weed control at 250 g/ha ([15]; 250 g ai/ha) was 60% and the pest or weed control at 31 g/ha ([16]; 31 g ai/ha) was 10%. The pest or weed control at 62 g/ha ([16]; 62 g ai/ha) was 10%, the pest or weed control at 125 g/ha ([16]; 125 g ai/ha) was 15% and the pest or weed control at 250 g/ha ([16]; 250 g ai/ha) was 85%. The plant injury at 31 g/ha ([17]; 31 g ai/ha) was 0%, the plant injury at 62 g/ha ([17]; 62 g ai/ha) was 0% and the plant injury at 125 g/ha ([17]; 125 g ai/ha) was 10%. The plant injury at 250 g/ha ([17]; 250 g ai/ha) was 15%, the pest or weed control at 31 g/ha ([18]; 31 g ai/ha) was 50% and the pest or weed control at 62 g/ha ([18]; 62 g ai/ha) was 70%. It also gave a pest or weed control at 125 g/ha ([18]; 125 g ai/ha) of 95%, a pest or weed control at 250 g/ha ([18]; 250 g ai/ha) of 95% and a pest or weed control at 31 g/ha ([19]; 31 g ai/ha) of 50%. The pest or weed control at 62 g/ha ([19]; 62 g ai/ha) was 55%, the pest or weed control at 125 g/ha ([19]; 125 g ai/ha) was 60% and the pest or weed control at 250 g/ha ([19]; 250 g ai/ha) was 85%. It also gave a pest or weed control at 31 g/ha ([20]; 31 g ai/ha) of 100%, a pest or weed control at 62 g/ha ([20]; 62 g ai/ha) of 100% and a pest or weed control at 125 g/ha ([20]; 125 g ai/ha) of 100%. It also gave a pest or weed control at 31 g/ha ([21]; 31 g ai/ha) of 45%, a pest or weed control at 62 g/ha ([21]; 62 g ai/ha) of 98% and a pest or weed control at 125 g/ha ([21]; 125 g ai/ha) of 100%. For the same compound, the pest or weed control at 31 g/ha ([22]; 31 g ai/ha) was 45%, the pest or weed control at 62 g/ha ([22]; 62 g ai/ha) was 75% and the pest or weed control at 125 g/ha ([22]; 125 g ai/ha) was 100%.
